Measurements: patent US20150105252A1, “SUBSTITUTED PYRAZOLES AS HERBICIDES” (E I DU PONT DE NEMOURS AND COMPANY, priority 2013, published 2015)

Key:
Assay in all cases: Test F preemergence
common waterhemp = format: in vivo, Amaranthus rudis
Description: (§1) Seeds of plant species selected from corn (Zea mays), soybean (Glycine max), velvetleaf (Abutilon theophrasti), lambsquarters (Chenopodium album), wild poinsettia (Euphorbia heterophylla), pigweed, palmer (palmer pigweed, Amaranthus palmeri), common waterhemp (Amaranthus rudis), surinam grass (Brachiaria decumbens), large crabgrass (Digitaria sanguinalis), crabgrass, Brazil (Brazilian crabgrass, Digitaria horizontalis), fall panicum (Panicum dichotomiflorum), giant foxtail (Setaria faberii), green foxtail (Setaria viridis), goosegrass (Eleusine indica), johnsongrass (Sorghum halepense), common ragweed (Ambrosia elation), barnyardgrass (Echinochloa crus-galli), southern sandbur (Cenchrus echinatus), arrowleaf sida (Sida rhombifolia), Italian ryegrass (Lolium multiflorum), dayflower, VA (Virginia (VA) dayflower, Commelina virginica), field bindweed (Convolvulus arvensis), cocklebur (common cocklebur, Xanthium strumarium), morningglory (Ipomoea coccinea), nightshade (eastern black nightshade, Solanum ptycanthum), kochia (Kochia scoparia), yellow nutsedge (Cyperus esculentus), and hairy beggarticks (Bidens pilosa), were planted into a silt loam soil and treated preemergence with test chemicals formulated in a non-phytotoxic solvent mixture which included a surfactant.
(§2) At the same time, plants from these crop and weed species and also horseweed (Canada horseweed, Conyza canadensis), smartweed (ladysthumb smartweed, Polygonum persicaria), waterhemp_RES1, (ALS & Triazine resistant common waterhemp, Amaranthus rudis), and waterhemp_RES2, (ALS & HPPD resistant common waterhemp, Amaranthus rudis) were treated with postemergence applications of test chemicals formulated in the same manner. Plants ranged in height from 2 to 18 cm for postemergence treatments (1- to 4-leaf stage). Treated plants and controls were maintained in a greenhouse for 14 to 21 days, after which time all species were compared to controls and visually evaluated. Plant response ratings, summarized in Table F, are based on a scale of 0 to 100 where 0 is no effect and 100 is complete control. A dash (-) response means no test result.

Surinam grass = format: in vivo, Brachiaria decumbens
Description: as §1, §2

goosegrass = format: in vivo, Eleusine indica
Description: as §1, §2

johnsongrass = format: in vivo, Sorghum halepense
Description: as §1, §2

southern sandbur = format: in vivo, Cenchrus echinatus
Description: as §1, §2

dayflower, VA = format: in vivo, Commelina virginica
Description: as §1, §2

yellow nutsedge = format: in vivo, Cyperus esculentus
Description: as §1, §2

[1] = Preemergence, 31 g ai/ha, scale 0 to 100
[2] = Preemergence, 62 g ai/ha, scale 0 to 100
[3] = Preemergence, 125 g ai/ha, scale 0 to 100
[4] = preemergence, 8 g ai/ha, scale 0 to 100, 100 is complete control
[5] = preemergence, 16 g ai/ha, scale 0 to 100, 100 is complete control
[6] = Preemergence, 16 g ai/ha, scale 0 to 100
[7] = Preemergence, 250 g ai/ha, scale 0 to 100

Compound	Plant response rating, Common Waterhemp (common waterhemp; [2])	Plant response rating, Common Waterhemp (common waterhemp; [3])	Plant response rating, Common Waterhemp (common waterhemp; [4])	Plant response rating, Surinam Grass (Surinam grass; [2])	Plant response rating, Surinam Grass (Surinam grass; [3])	Plant response rating, Surinam Grass (Surinam grass; [4])	Plant response rating, Surinam Grass (Surinam grass; [5])	Plant response rating, Goosegrass (goosegrass; [2])	Plant response rating, Goosegrass (goosegrass; [3])	Plant response rating, Goosegrass (goosegrass; [4])	Plant response rating, Goosegrass (goosegrass; [5])	Plant response rating, Johnsongrass (johnsongrass; [2])	Plant response rating, Johnsongrass (johnsongrass; [3])	Plant response rating, Johnsongrass (johnsongrass; [4])	Plant response rating, Southern Sandbur (southern sandbur; [2])	Plant response rating, Southern Sandbur (southern sandbur; [3])	Plant response rating, Dayflower, VA (dayflower, VA; [2])	Plant response rating, Dayflower, VA (dayflower, VA; [3])	Plant response rating, Yellow Nutsedge (yellow nutsedge; [2])	Plant response rating, Yellow Nutsedge (yellow nutsedge; [3])	also measured
CCOc1cc(C(=O)NCC(F)(F)F)nn1Cc1ccnc(C(F)(F)F)c1 [Compound 104]	100	100	65	75	80	0	10	75	100	5	25	75	100	15	80	90	98	100	60	75	Plant response rating, Common Waterhemp (common waterhemp; [1]): 100; Plant response rating, Common Waterhemp (common waterhemp; [5]): 98; Plant response rating, Surinam Grass (Surinam grass; [1]): 35; Plant response rating, Goosegrass (goosegrass; [1]): 30; Plant response rating, Johnsongrass (johnsongrass; [1]): 60; Plant response rating, Johnsongrass (johnsongrass; [5]): 35; Plant response rating, Southern Sandbur (southern sandbur; [1]): 20; Plant response rating, Southern Sandbur (southern sandbur; [4]): 0; Plant response rating, Southern Sandbur (southern sandbur; [5]): 0; Plant response rating, Dayflower, VA (dayflower, VA; [1]): 50; Plant response rating, Dayflower, VA (dayflower, VA; [4]): 0; Plant response rating, Dayflower, VA (dayflower, VA; [5]): 0; Plant response rating, Yellow Nutsedge (yellow nutsedge; [1]): 25; Plant response rating, Yellow Nutsedge (yellow nutsedge; [4]): 0; Plant response rating, Yellow Nutsedge (yellow nutsedge; [5]): 0
CCNC(=O)c1cc(CCCl)n(Cc2ccnc(C(F)(F)F)c2)n1 [Compound 179]	25	75	0	20	60	0	–	30	30	0	–	20	70	0	0	35	10	40	10	60	Plant response rating, Common Waterhemp (common waterhemp; [1]): 0; Plant response rating, Surinam Grass (Surinam grass; [1]): 20; Plant response rating, Goosegrass (goosegrass; [1]): 30; Plant response rating, Johnsongrass (johnsongrass; [1]): 20; Plant response rating, Southern Sandbur (southern sandbur; [1]): 0; Plant response rating, Southern Sandbur (southern sandbur; [4]): 0; Plant response rating, Dayflower, VA (dayflower, VA; [1]): 0; Plant response rating, Dayflower, VA (dayflower, VA; [4]): 0; Plant response rating, Yellow Nutsedge (yellow nutsedge; [1]): 0; Plant response rating, Yellow Nutsedge (yellow nutsedge; [4]): 0
CCNC(=O)c1cc(CC)n(Cc2ccnc(C(F)(F)F)c2)n1 [Compound 196]	75	100	0	25	70	0	0	70	95	0	0	35	80	0	10	40	35	75	20	50	Plant response rating, Common Waterhemp (common waterhemp; [6]): 50; Plant response rating, Common Waterhemp (common waterhemp; [5]): 35; Plant response rating, Johnsongrass (johnsongrass; [5]): 0; Plant response rating, Southern Sandbur (southern sandbur; [4]): 0; Plant response rating, Southern Sandbur (southern sandbur; [5]): 0; Plant response rating, Dayflower, VA (dayflower, VA; [4]): 0; Plant response rating, Dayflower, VA (dayflower, VA; [5]): 0; Plant response rating, Yellow Nutsedge (yellow nutsedge; [4]): 0; Plant response rating, Yellow Nutsedge (yellow nutsedge; [5]): 0
Cc1cc(C(=O)NC(C)C)nn1Cc1ccnc(C(F)(F)F)c1 [Compound 197]	65	85	20	20	20	0	0	5	70	0	0	0	20	0	0	15	0	40	5	25	Plant response rating, Common Waterhemp (common waterhemp; [6]): 65; Plant response rating, Common Waterhemp (common waterhemp; [5]): 60; Plant response rating, Johnsongrass (johnsongrass; [5]): 0; Plant response rating, Southern Sandbur (southern sandbur; [4]): 0; Plant response rating, Southern Sandbur (southern sandbur; [5]): 0; Plant response rating, Dayflower, VA (dayflower, VA; [4]): 0; Plant response rating, Dayflower, VA (dayflower, VA; [5]): 0; Plant response rating, Yellow Nutsedge (yellow nutsedge; [4]): 0; Plant response rating, Yellow Nutsedge (yellow nutsedge; [5]): 0
CCc1cc(C(=O)NC2CC2)nn1Cc1ccnc(OCC(F)(F)F)c1 [Compound 200]	20	100	–	5	65	–	0	35	65	–	0	20	70	–	0	15	0	10	0	25	Plant response rating, Common Waterhemp (common waterhemp; [7]): 100; Plant response rating, Common Waterhemp (common waterhemp; [6]): 0; Plant response rating, Surinam Grass (Surinam grass; [7]): 95; Plant response rating, Goosegrass (goosegrass; [7]): 90; Plant response rating, Johnsongrass (johnsongrass; [7]): 75; Plant response rating, Johnsongrass (johnsongrass; [5]): 0; Plant response rating, Southern Sandbur (southern sandbur; [7]): 60; Plant response rating, Southern Sandbur (southern sandbur; [5]): 0; Plant response rating, Dayflower, VA (dayflower, VA; [7]): 60; Plant response rating, Dayflower, VA (dayflower, VA; [5]): 0; Plant response rating, Yellow Nutsedge (yellow nutsedge; [7]): 35; Plant response rating, Yellow Nutsedge (yellow nutsedge; [5]): 0
